Experimental data as given in patent US10646477B1, “5-substituted 2,4-thiazolidinediones (thiohydantoins), pseudothiohydantoins, and propseudothiohydantoins for use as antiviral agents” (Jiva Pharma, Inc., priority 2015, dated 2020).
Values after ≈ are worked out from the molar mass of the structure shown. Like-named read-outs stand apart in the source and are kept apart here.

Key:
[1] = cited from earlier work
[2] = tested on: cold sores caused by the herpes simplex virus; conditions: OTC cream; cited from earlier work
HSV-2 [3] = assay: In vitro HSV-2 tests using published formulations of 1-docosanol with surfactants; type: cell-based, Herpes simplex virus type 2; conditions: published formulations with various surfactants
Excerpt: The alcohol intermediate, cis,cis,cis,cis,cis,cis-4,7,10,13,16,19-docosahexaenoic-1-ol obtained by reduction of DHA in the above series has the same chain-length as 1-docasonol, but has six conjugated-cis-double bonds for a stiff, elongated backbone, in contrast to a floppy backbone in saturated 1-docasanol.

healthy cells = type: cell-based
Experimental: (§1) Another advantage was noted of thiazolidinedione compounds in Formula (I) where R is H, and R1 is an omega-3 PUFA derivative derived from DHA, EPA or ALA were provided to the Cincinnati Children's Hospital Medical Center, for in vitro HSV-2 antiviral activity by the viral yield reduction assay method, (YRA). […] For the DHA derived (JIVA-004), a ^˜44% reduction in virus yield was detected at 0.1 mM, and 22% reduction was detected at 0.01 mM. […] The more water soluble sodium salt of JIVA-004, in the YRA method, was toxic at the highest concentrations tested (10 mM to 7.5 mM).

HSV-2 [4] = assay: Viral yield reduction assay (YRA), Cincinnati Children's Hospital Medical Center; type: cell-based, Herpes simplex virus type 2
Experimental: (§2) The yield reduction assay (YRA) was used in determining antiviral activity of test compounds such as JIVA Compounds, controls and standards. The virus yield reduction assay is a powerful technique for evaluating the efficacy of antiviral compounds. Monolayer cultures of mammalian cells were grown in 96-well microliter tissue culture plates and infected with virus. Test compounds were added and serially diluted directly with the plates. Following a cycle of virus replication, culture lysates were made and serially diluted in a separate set of uninfected cultures grown in microliter plates. The cultures were incubated, plaques were enumerated in wells containing […] plaques, and virus titers were calculated.
as §1

cells = assay: Toxicity to the cells seen in the plaque reduction assay (FIG. 1); type: cell-based
Experimental: (§3) The concentrations were done in duplicate ranging from 1 mM to 10 mM and the average value is plotted for each concentration. At 2 days post infection the number of plaques were counted. The next day, the wells were collected (media and cells) and titered in a plaque assay.
FIG. 1: Both Compound 2 (JIVA-0042) and Compound 3 (JIVA-005) appeared to show toxicity at 10 mM, so even if the graphs show almost 100% reduction at this concentration, it is due to toxicity, perhaps cytostatic inhibition of the cells and thus very few or small plaques were observed. However, by 5 mM of Compound 2 (JIVA-0042), the cells look good (no toxicity) and >95% plaque reduction for Compound 2 and a 50% reduction for Compound 3 (JIVA-005), with the plaques still smaller than the control no drug plaques.

VZV = assay: CellTiter-Glo (Cytopathic effect/Toxicity) antiviral assay, U of Alabama / NIH; type: cell-based, Varicella zoster virus; conditions: for activity against the Varicella-Zoster virus: primary assays at the NIH
Excerpt: (§4) General Outline of in vitro biology Study: The overall goal of this study was to perform a preliminary evaluation of gross toxicity as well as antiviral effectiveness against HSV-1 and HSV-2, and VZV virus of several pharmaceutical preparations. The HSV-1 and HSV-2 antiviral activity in an in vitro infection system was studied, at the Louisiana State University, Health Sciences System, in New Orleans, and all three above at the University of Alabama, NIAID sponsored laboratories.

HSV-2 [5] = assay: as above; type: cell-based, Herpes simplex virus type 2
Excerpt: as §4

HSV-1 = assay: as above; type: cell-based, Herpes simplex virus type 1
Excerpt: as §4

HSV-2 [6] = assay: Viral yield reduction assay relative to mock treated controls, LSU; type: cell-based, Herpes simplex virus type 2
Excerpt: as §4, §2

Vero cell monolayers = assay: Gross visible toxicity (CC50), 48 hour continuous treatment, LSU; type: cell-based; conditions: tested at L (LSU-HSC)
Excerpt: as §4

HSV-2 [7] = assay: Plaque reduction and virus yield reduction assay (FIGS. 1-6); type: cell-based, Herpes simplex virus type 2; set-up: Mean virus titer: unit not given here
Experimental: as §2, §3

[8] = CellTiter-Glo toxicity (CC50), U of Alabama / NIH
HSV-1 McKrae = assay: McKrae viral yield reduction assay relative to mock treated controls, LSU; type: cell-based, Herpes simplex virus type 1
Excerpt: as §4, §2

Aqueous solubility = type: physicochemical; conditions: water; at 3° C.
[9] = Gross visible toxicity (CC50), 48 hour continuous treatment, LSU; type: cell-based; conditions: African green monkey, Vero cell monolayers, tested at L (LSU-HSC)
Excerpt: as §4

[10] = VZV, tested at A (U of Alabama), read-out: EC50
[11] = HSV-2, tested at L (LSU-HSC), read-out: EC50
[12] = 10 mM, said to be due to toxicity
[13] = VZV line, tested at A (U of Alabama)
[14] = HSV-1, tested at L (LSU-HSC), read-out: EC50
[15] = CC50, HSV-1 line, tested at A (U of Alabama)
[16] = CC50, HSV-2 line, tested at A (U of Alabama)
[17] = CC50, VZV line, tested at A (U of Alabama)
[18] = Human alphaherpesvirus 2, HSV-2, tested at A (U of Alabama), read-out: EC50
[19] = Human alphaherpesvirus 1, HSV-1, tested at A (U of Alabama), read-out: EC50
[20] = Human alphaherpesvirus 2, HSV-2, tested at L (LSU-HSC), read-out: EC50
[21] = Human alphaherpesvirus 1, HSV-1, tested at L (LSU-HSC), read-out: EC50

## CCCCCCCCCCCCCCCCCCCCCCO [1-docosanol, 1-Docosanol]
[1]
  aqueous solubility: near zero
[2]
  mean time of healing: 4.1 days
HSV-2 [3]
  antiviral activity: ineffective

## CC/C=C\C/C=C\C/C=C\C/C=C\C/C=C\C/C=C\CCCO [DHA derived primary alcohol, cis,cis,cis,cis,cis,cis-4,7,10,13,16,19-docosahexaenoic-1-ol]
HSV-2 [3]
  antiviral activity: ineffective

## CC/C=C\C/C=C\C/C=C\C/C=C\C/C=C\C/C=C\CCCC1SC(=O)NC1=O (centres unmarked) [JIVA-004, RS-5-((4Z,7Z,10Z,13Z,16Z,19Z)docosa-4,7,10,13,16,19-hexaen-1-yl)thiazolidine-2,4-dione]
Healthy cells
  conservative estimated toxicity index CC50: 300 µM
HSV-2 [4]; 0.01 mM
  reduction in virus yield: 22%
HSV-2 [4]; 0.1 mM
  reduction in virus yield: ~44%

## CN(C)C(=N)NC(=N)N.O=C1CSC(=O)N1 [JIVA-005]
cells; 10 mM
  toxicity: toxicity
VZV; [10]
  EC50: 0.09 µM
VZV
  activity against the Varicella-Zoster virus: highly active
HSV-2 [5]; HSV-2, tested at A (U of Alabama), read-out: EC50
  EC50: > 150 µM
HSV-1; HSV-1, tested at A (U of Alabama), read-out: EC50
  EC50: > 150 µM
HSV-2 [6]; [11]
  EC50: ~700 µM
Vero cell monolayers; HSV-2 line
  CC50: > 10000 µM
HSV-2 [7]; 1 mM
  Mean virus titer: 6.24
HSV-2 [7]; 2.5 mM
  Mean virus titer: 5.90
  reduction in virus yield: very little reduction
HSV-2 [7]; 5 mM
  Mean virus titer: 4.92
  plaque reduction: 50%
HSV-2 [7]; 7.5 mM
  Mean virus titer: 3.86
HSV-2 [7]; 10 mM
  Mean virus titer: 2.87
HSV-2 [7]; [12]
  plaque reduction: ~100%
HSV-2 [7]; Excel, best fit line (FIGS. 4 and 5), read-out: estimated EC50
  EC50: ~4000 µM
HSV-2 [7]; Prism program (FIG. 6), read-out: calculated EC50
  EC50: 5040 µM
[8]; HSV-1 line, tested at A (U of Alabama)
  CC50: > 150 µM
[8]; HSV-2 line, tested at A (U of Alabama)
  CC50: > 150 µM
[8]; [13]
  CC50: > 150 µM
HSV-1 McKrae; [14]
  EC50: ~625 µM

## O=C1CSC(=O)N1 [JIVA-0042, 2,4-Thiazolidinedione]
cells; 5 mM
  toxicity: no toxicity
cells; 10 mM
  toxicity: toxicity
VZV; Human alphaherpesvirus 3
  EC50: > 30 µM
HSV-2 [5]; Human alphaherpesvirus 2
  EC50: > 150 µM
Aqueous solubility
  solubility: 30 mg/mL (≈ 256 mM)
HSV-1; Human alphaherpesvirus 1
  EC50: > 150 µM
HSV-2 [6]; Human alphaherpesvirus 2
  EC50: 1880 µM
[9]; HSV-1 line
  CC50 at 48 h: > 14000 µM
[9]; HSV-2 line
  CC50 at 48 h: > 14000 µM
HSV-2 [7]; 1 mM
  antiviral effect: no antiviral effect
HSV-2 [7]; 2.5 mM
  reduction in virus yield: 30%
HSV-2 [7]; 5 mM
  plaque reduction: > 95%
HSV-2 [7]; [12]
  plaque reduction: ~100%
HSV-2 [7]; Human alphaherpesvirus 2, read-out: calculated EC50
  EC50: 2930 µM
HSV-2 [7]; Human alphaherpesvirus 2, read-out: inhibition that can be contributed to Compound 2 activity
  inhibition at 5000 µM: ~45%
[8]; [15]
  CC50: > 150 µM
[8]; [16]
  CC50: > 150 µM
[8]; [17]
  CC50: 80 µM
HSV-1 McKrae; Human alphaherpesvirus 1
  EC50: ~625 µM

## N=C(N)SC(F)C(=O)O (centres unmarked) [JIVA-0043, RS-(Carbamimidoylsulfanyl)(fluoro)acetic acid]
VZV; Human alphaherpesvirus 3, VZV, tested at A (U of Alabama), read-out: EC50
  EC50: < 0.05 µM
VZV
  activity against the Varicella-Zoster virus: highly active
HSV-2 [5]; [18]
  EC50: > 150 µM
HSV-1; [19]
  EC50: > 150 µM
HSV-2 [6]; [20]
  EC50: > 150 µM
other
  melting point: 178 °C
[9]; HSV-1 line
  CC50 at 48 h: ~1000 µM
[9]; HSV-2 line
  CC50 at 48 h: > 1000 µM
[8]; [15]
  CC50: > 150 µM
[8]; [16]
  CC50: > 150 µM
[8]; [17]
  CC50: > 150 µM
HSV-1 McKrae; [21]
  EC50: > 150 µM

## CC1SC(=N)NC1=O (centres unmarked) [JIVA-0044, RS-2-Imino-5-methylthiazolidine-4-one]
HSV-2 [5]; [18]
  EC50: > 150 µM
HSV-1; [19]
  EC50: > 150 µM
HSV-2 [6]; [20]
  EC50: 1400 µM
other
  melting point: 224 to 228 °C (dec.)
[9]; HSV-1 line
  CC50 at 48 h: > 39000 µM
[9]; HSV-2 line
  CC50 at 48 h: > 39000 µM
[8]; [15]
  CC50: > 150 µM
[8]; [16]
  CC50: > 150 µM
HSV-1 McKrae; [21]
  EC50: 1420 µM

## N=C(N)SC(C(=O)O)c1ccccc1 (centres unmarked) [JIVA-0045, RS-2-[Amino(imino)methylsulfenyl]-2-phenylacetic acid]
HSV-2 [5]; [18]
  EC50: > 150 µM
HSV-1; [19]
  EC50: > 150 µM
HSV-2 [6]; [20]
  EC50: ~750 µM
other
  melting point: 230 °C (dec.)
[9]; HSV-1 line
  CC50 at 48 h: 3600 µM
[9]; HSV-2 line
  CC50 at 48 h: 3600 µM
[8]; [15]
  CC50: > 150 µM
[8]; [16]
  CC50: > 150 µM
HSV-1 McKrae; [21]
  EC50: 238 µM

## N=C1NC(=O)C(c2ccccc2Cl)S1 (centres unmarked) [JIVA-0046, RS-2-Imino-5-(2′-chlorophenyl) thiazolidine-4-one]
HSV-2 [5]; [18]
  EC50: > 150 µM
HSV-1; [19]
  EC50: > 150 µM
HSV-2 [6]; [20]
  EC50: ~1000 µM
other
  melting point: 244 to 246 °C
[9]; HSV-1 line
  CC50 at 48 h: ~1000 µM
[9]; HSV-2 line
  CC50 at 48 h: ~1000 µM
[8]; [15]
  CC50: > 150 µM
[8]; [16]
  CC50: > 150 µM
HSV-1 McKrae; [21]
  EC50: 2000 µM

## NC1=NC(=O)CS1 [JIVA-0048, Pseudothiohydantoin]
HSV-2 [6]; [11]
  EC50: 76 µM
Vero cell monolayers; HSV-1 line
  CC50: 19400 µM
Vero cell monolayers; HSV-2 line
  CC50: 19400 µM
HSV-1 McKrae; [14]
  EC50: 296 µM

## CN(C)C(=N)NC(=N)N.N=C1NC(=O)CS1 [JIVA-0049, Pseudothiohydantain Metforminate]
VZV; [10]
  EC50: < 0.05 µM
VZV
  activity against the Varicella-Zoster virus: highly active
HSV-1; HSV-1, tested at N (NIH), read-out: EC50
  EC50: > 300 µM
[8]; HSV-1 line, tested at N (NIH)
  CC50: > 300 µM
[8]; [13]
  CC50: ≥ 150 µM

## CN(C)C(=N)NC(=N)N.Cl [Met.HCl, 1,1-dimethylbiguanide hydrochloride, reference compound]
HSV-2 [7]; 1 mM
  Mean virus titer: 5.98
HSV-2 [7]; 2.5 mM
  Mean virus titer: 6.05
HSV-2 [7]; 5 mM
  Mean virus titer: 5.76
HSV-2 [7]; 7.5 mM
  Mean virus titer: 4.97
HSV-2 [7]; 10 mM
  Mean virus titer: 4.32
HSV-2 [7]; Human alphaherpesvirus 2, read-out: estimated EC50
  EC50: ~5000 µM
